Tests used:
PI3Kα = PI3Kα (Homo sapiens, UniProt P42336); test: PI3K kinase activity inhibition assay; assay type: biochemical; conditions: Kinase-Glo Plus ATP detection, read-out: IC50 against PI3K
In short: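 PI3Kα (50 nM solution) was reacted with 30 μM ATP and 45 μM PIP2 solutions, each in HEPES pH 7.4 with MgCl2 and DTT, for 2 h at room temperature. Remaining ATP was measured by Kinase-Glo Plus luminescence, and inhibition was derived from ATP consumed. IC50 was taken from curve fitting of the serial dilutions.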

[1] = target: T1, human mTOR (His-tagged mTOR (1362C)) (Homo sapiens, UniProt P42345); test: mTOR kinase activity inhibition assay; assay type: biochemical; conditions: HTRF, read-out: IC50 against mTOR
T1 construct: the 1362 to 2549 amino acid portion on the C terminus side of human mTOR; His tag (N); made in house
In short: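 Crude His-tagged mTOR (aa 1362–2549) from stable HEK293 cells, with 8 μg/ml biotinylated peptide in 50 mM HEPES pH 7.5, 20 mM MnCl2; compound diluted in 20 μM ATP solution, reaction 3 h at room temperature. Phospho-peptide detected by HTRF (anti-phospho-S6K Thr389 cryptate/streptavidin-XL665, overnight at 4°C), 665/620 nm ratio. IC50 derived from curve fit of % inhibition.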

[2] = test system: human endometrial cancer cell strain AN3CA; test: Cell growth inhibition test (MTT), AN3CA; assay type: cell-based; conditions: AN3-CA, 72 h, 3 days culture, read-out: concentration exhibiting anti-cell effect (GI50)
In short: (§1)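 AN3CA, IGROV1 and HT29 seeded at 5000, 1000 and 5000 cells/well; compound added next day, 3 days at 37° C, 5% CO2. MTT 4 h, formazan in DMSO read at 540 nm. GI50 is the concentration giving 50% growth rate (T/C %, corrected for day-of-addition absorbance), interpolated between two bracketing concentrations.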

[3] = test system: human ovary cancer cell strain IGROV1; test: Cell growth inhibition test (MTT), IGROV1; assay type: cell-based; conditions: IGROV-1, 72 h, IGROV1, 3 days culture, read-out: concentration exhibiting anti-cell effect (GI50)
In short: as §1

[4] = test system: human colon cancer cell strain HT29; test: Cell growth inhibition test (MTT), HT29; assay type: cell-based; conditions: HT-29, 72 h, HT29, 3 days culture, read-out: concentration exhibiting anti-cell effect (GI50)
In short: as §1

T1 sequence (P42345 1362-2549): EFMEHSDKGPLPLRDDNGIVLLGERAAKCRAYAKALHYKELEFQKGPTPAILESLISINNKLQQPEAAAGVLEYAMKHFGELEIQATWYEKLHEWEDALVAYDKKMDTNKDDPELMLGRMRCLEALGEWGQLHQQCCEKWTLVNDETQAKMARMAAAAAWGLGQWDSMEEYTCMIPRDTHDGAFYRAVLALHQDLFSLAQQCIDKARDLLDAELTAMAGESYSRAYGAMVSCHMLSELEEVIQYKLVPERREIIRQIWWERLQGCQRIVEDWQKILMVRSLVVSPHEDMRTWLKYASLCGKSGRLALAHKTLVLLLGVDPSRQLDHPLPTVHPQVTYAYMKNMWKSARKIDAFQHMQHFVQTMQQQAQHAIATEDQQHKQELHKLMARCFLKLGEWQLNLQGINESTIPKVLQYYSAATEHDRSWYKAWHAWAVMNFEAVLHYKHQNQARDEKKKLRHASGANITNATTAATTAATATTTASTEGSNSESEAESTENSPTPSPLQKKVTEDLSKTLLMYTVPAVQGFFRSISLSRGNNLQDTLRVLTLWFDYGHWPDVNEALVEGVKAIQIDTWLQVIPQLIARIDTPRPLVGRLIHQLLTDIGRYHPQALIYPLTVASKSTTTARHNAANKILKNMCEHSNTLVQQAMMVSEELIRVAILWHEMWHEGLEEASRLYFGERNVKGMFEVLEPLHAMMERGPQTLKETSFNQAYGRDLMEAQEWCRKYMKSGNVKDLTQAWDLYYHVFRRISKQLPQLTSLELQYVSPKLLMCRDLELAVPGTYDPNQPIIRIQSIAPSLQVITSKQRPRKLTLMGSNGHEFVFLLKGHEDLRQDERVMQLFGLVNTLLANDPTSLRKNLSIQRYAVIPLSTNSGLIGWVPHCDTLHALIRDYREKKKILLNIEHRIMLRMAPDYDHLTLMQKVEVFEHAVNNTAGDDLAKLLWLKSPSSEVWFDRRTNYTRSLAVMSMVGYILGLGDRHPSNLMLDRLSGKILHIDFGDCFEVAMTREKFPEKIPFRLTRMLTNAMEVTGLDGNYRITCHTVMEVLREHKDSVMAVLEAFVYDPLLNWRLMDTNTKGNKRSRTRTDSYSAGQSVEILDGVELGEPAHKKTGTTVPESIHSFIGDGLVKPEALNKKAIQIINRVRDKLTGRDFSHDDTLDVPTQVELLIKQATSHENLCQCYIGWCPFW
Chain of PI3Kα (P42336 whole entry, species assumed): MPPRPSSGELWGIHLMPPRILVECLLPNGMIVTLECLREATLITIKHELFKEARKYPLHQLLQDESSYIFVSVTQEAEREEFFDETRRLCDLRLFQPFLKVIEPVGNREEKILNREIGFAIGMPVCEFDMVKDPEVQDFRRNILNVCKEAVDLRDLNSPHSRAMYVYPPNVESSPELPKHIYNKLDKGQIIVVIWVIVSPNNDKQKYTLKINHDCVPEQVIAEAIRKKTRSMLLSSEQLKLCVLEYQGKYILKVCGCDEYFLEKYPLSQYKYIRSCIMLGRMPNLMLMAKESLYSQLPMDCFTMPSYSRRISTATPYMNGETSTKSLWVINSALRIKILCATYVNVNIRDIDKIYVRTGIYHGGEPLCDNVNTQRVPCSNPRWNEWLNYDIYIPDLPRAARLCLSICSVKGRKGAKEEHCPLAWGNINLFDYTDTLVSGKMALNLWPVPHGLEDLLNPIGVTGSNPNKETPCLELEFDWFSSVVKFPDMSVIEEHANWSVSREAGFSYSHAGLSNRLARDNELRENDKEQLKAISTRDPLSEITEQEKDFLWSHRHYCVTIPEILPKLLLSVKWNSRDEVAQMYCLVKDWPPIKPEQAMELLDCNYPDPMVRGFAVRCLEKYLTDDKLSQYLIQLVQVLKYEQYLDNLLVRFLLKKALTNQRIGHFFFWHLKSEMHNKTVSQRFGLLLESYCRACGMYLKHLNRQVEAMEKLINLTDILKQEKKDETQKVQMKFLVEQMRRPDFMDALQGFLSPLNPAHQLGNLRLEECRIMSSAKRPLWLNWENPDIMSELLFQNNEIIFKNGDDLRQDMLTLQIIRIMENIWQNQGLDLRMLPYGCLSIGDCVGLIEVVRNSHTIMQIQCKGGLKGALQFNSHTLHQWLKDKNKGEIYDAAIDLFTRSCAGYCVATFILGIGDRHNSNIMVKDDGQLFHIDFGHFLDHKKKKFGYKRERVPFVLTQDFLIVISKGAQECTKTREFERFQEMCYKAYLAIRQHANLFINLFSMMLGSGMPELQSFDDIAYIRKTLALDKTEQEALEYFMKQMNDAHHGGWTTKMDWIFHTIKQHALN
Chain of PI3Kα (P27986 whole entry partner, species assumed): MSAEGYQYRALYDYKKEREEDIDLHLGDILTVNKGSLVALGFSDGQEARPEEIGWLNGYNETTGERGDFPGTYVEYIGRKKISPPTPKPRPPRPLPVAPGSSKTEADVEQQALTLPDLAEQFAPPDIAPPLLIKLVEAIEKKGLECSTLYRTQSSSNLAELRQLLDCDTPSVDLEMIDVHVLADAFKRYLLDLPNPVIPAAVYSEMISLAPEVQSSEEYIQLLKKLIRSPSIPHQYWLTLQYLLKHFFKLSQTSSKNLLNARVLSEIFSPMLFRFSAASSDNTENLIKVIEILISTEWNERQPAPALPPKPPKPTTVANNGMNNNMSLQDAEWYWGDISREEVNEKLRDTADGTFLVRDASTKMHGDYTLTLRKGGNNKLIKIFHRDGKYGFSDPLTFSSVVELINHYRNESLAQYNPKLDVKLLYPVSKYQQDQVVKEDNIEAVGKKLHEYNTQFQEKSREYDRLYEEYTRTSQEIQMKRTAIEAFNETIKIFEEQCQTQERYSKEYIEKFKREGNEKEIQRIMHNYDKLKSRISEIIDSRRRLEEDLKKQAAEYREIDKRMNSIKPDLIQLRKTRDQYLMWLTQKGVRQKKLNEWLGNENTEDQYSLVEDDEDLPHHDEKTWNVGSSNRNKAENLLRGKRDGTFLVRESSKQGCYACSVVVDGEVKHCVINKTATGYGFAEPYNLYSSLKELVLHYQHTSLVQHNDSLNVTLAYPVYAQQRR

IC50 (PI3Kα) [nM] | IC50 [1] [nM] | GI50 [2] [nM] | GI50 [3] [nM] | GI50 [4] [nM] | SMILES
10 to 20 | 100 to 500 | ≤ 5000 | ≤ 5000 | ≤ 5000 | Cc1nc(N)ncc1-c1nc(N2CCOCC2)c2nc(N3CCC(CO)CC3)n(CC3CC3)c2n1 [Example 37, {1-[2-(2-Amino-4-methylpyrimidin-5-yl)-9-(cyclopropylmethyl)-6-morpholin-4-yl-9H-purin-8-yl]piperidin-4-yl}methanol]
10 to 20 | 10 to 30 | ≤ 5000 | ≤ 5000 | ≤ 5000 | C[C@@H]1CN(c2nc3c(N4CCOCC4)nc(-c4cnc(N)nc4)nc3n2CC2CC2)C[C@H](C)N1S(C)(=O)=O [Example 38, 5-{9-(Cyclopropylmethyl)-8-[cis-3,5-dimethyl-4-(methylsulfonyl)piperazin-1-yl]-6-morpholin-4-yl-9H-purin-2-yl}pyrimidin-2-amine]
< 10 | 30 to 100 | ≤ 5000 | ≤ 5000 | ≤ 5000 | CNc1ncc(-c2nc(N3CCOCC3)c3nc(N4CCOCC4)n(CC4CC4)c3n2)cn1 [Example 39, 5-[9-(Cyclopropylmethyl)-6,8-dimorpholin-4-yl-9H-purin-2-yl]-N-methylpyrimidin-2-amine]
10 to 20 | 100 to 500 | ≤ 5000 | ≤ 5000 | ≤ 5000 | CN(C)CC(=O)N1CCN(c2nc3c(N4CCOCC4)nc(-c4cnc(N)nc4)nc3n2CC2CC2)CC1 [Example 40, 5-[9-(Cyclopropylmethyl)-8-{4-[(dimethylamino)acetyl]piperazin-1-yl}-6-morpholin-4-yl-9H-purin-2-yl]pyrimidin-2-amine]
< 10 | 30 to 100 | ≤ 5000 | ≤ 5000 | ≤ 5000 | CNCC(=O)N1CCN(c2nc3c(N4CCOCC4)nc(-c4cnc(N)nc4)nc3n2CC2CC2)CC1 [Example 41, 5-[9-(Cyclopropylmethyl)-8-{4-[(methylamino)acetyl]piperazin-1-yl}-6-morpholin-4-yl-9H-purin-2-yl]pyrimidin-2-amine]
< 10 | 30 to 100 | ≤ 5000 | ≤ 5000 | ≤ 5000 | NCC(=O)N1CCN(c2nc3c(N4CCOCC4)nc(-c4cnc(N)nc4)nc3n2CC2CC2)CC1 [Example 42, 5-{8-[4-(Aminoacetyl)piperazin-1-yl]-9-(cyclopropylmethyl)-6-morpholin-4-yl-9H-purin-2-yl}pyrimidin-2-amine]
10 to 20 | 100 to 500 | ≤ 5000 | ≤ 5000 | ≤ 5000 | CNc1ncc(-c2nc(N3CCOCC3)c3nc(N4CCN(S(C)(=O)=O)CC4)n(CC4CC4)c3n2)c(C)n1 [Example 43]
20 to 50 | 30 to 100 | ≤ 5000 | ≤ 5000 | ≤ 5000 | CC(C)n1c(N2CCN(S(C)(=O)=O)CC2)nc2c(N3CCOCC3)nc(-c3cnc(N)nc3)nc21 [Example 46, 5-{9-Isopropyl-8-[4-(methylsulfonyl)piperazin-1-yl]-6-morpholin-4-yl-9H-purin-2-yl}pyrimidin-2-amine]
< 10 | 10 to 30 | ≤ 5000 | ≤ 5000 | ≤ 5000 | CC(C)Cn1c(N2CCCN(S(C)(=O)=O)CC2)nc2c(N3CCOCC3)nc(-c3cnc(N)nc3)nc21 [Example 49, 5-{9-Isobutyl-8-[4-(methylsulfonyl)-1,4-diazepan-1-yl]-6-morpholin-4-yl-9H-purin-2-yl}pyrimidin-2-amine]
10 to 20 | 10 to 30 | ≤ 5000 | ≤ 5000 | ≤ 5000 | CC(C)Cn1c(N2CCN[C@@H](C)C2)nc2c(N3CCOCC3)nc(-c3cnc(N)nc3)nc21 [Example 51, 5-{9-Isobutyl-8-[(3S)-3-methylpiperazin-1-yl]-6-morpholin-4-yl-9H-purin-2-yl}pyrimidin-2-amine]
< 10 | 30 to 100 | ≤ 5000 | ≤ 5000 | ≤ 5000 | CC(C)Cn1c(N2CCN[C@H](C)C2)nc2c(N3CCOCC3)nc(-c3cnc(N)nc3)nc21 [Example 52, 5-{9-Isobutyl-8-[(3R)-3-methylpiperazin-1-yl]-6-morpholin-4-yl-9H-purin-2-yl}pyrimidin-2-amine]
< 10 | 10 to 30 | ≤ 5000 | ≤ 5000 | ≤ 5000 | Nc1ncc(-c2nc(N3CCOCC3)c3nc(N4CCN(C(=O)Cn5ccnc5)CC4)n(CC4CC4)c3n2)cn1 [Example 56, 5-{9-(Cyclopropylmethyl)-8-[4-(1H-imidazol-1-ylacetyl)piperazin-1-yl]-6-morpholin-4-yl-9H-purin-2-yl}pyrimidin-2-amine]
< 10 | 10 to 30 | ≤ 5000 | ≤ 5000 | ≤ 5000 | C[C@H]1CN(c2nc3c(N4CCOCC4)nc(-c4cnc(N)nc4)nc3n2CC(F)(F)F)CCN1 [Example 58, 5-{8-[(3S)-3-Methylpiperazin-1-yl]-6-morpholin-4-yl-9-(2,2,2-trifluoroethyl)-9H-purin-2-yl}pyrimidin-2-amine]
< 10 | 10 to 30 | ≤ 5000 | ≤ 5000 | ≤ 5000 | C[C@@H]1CN(c2nc3c(N4CCOCC4)nc(-c4cnc(N)nc4)nc3n2CC(F)(F)F)CCN1 [Example 59, 5-{8-[(3R)-3-Methylpiperazin-1-yl]-6-morpholin-4-yl-9-(2,2,2-trifluoroethyl)-9H-purin-2-yl}pyrimidin-2-amine]
< 10 | ≥ 500 | ≤ 5000 | ≤ 5000 | ≤ 5000 | Cc1nc(N)ncc1-c1nc(N2CCOCC2)c2nc(N3CC[C@@H](NS(C)(=O)=O)C3)n(CC3CC3)c2n1 [Example 72, N-{(3R)-1-[2-(2-Amino-4-methylpyrimidin-5-yl)-9-(cyclopropylmethyl)-6-morpholin-4-yl-9H-purin-8-yl]pyrrolidin-3-yl}methanesulfonamide]
< 10 | ≥ 500 | ≤ 5000 | ≤ 5000 | ≤ 5000 | Cc1nc(N)ncc1-c1nc(N2CCOCC2)c2nc(N3CC[C@H](NS(C)(=O)=O)C3)n(CC3CC3)c2n1 [Example 73, N-{(3S)-1-[2-(2-Amino-4-methylpyrimidin-5-yl)-9-(cyclopropylmethyl)-6-morpholin-4-yl-9H-purin-8-yl]pyrrolidin-3-yl}methanesulfonamide]
< 10 | 10 to 30 | ≤ 5000 | ≤ 5000 | ≤ 5000 | C[C@H]1CN(c2nc3c(N4CCOCC4)nc(-c4cnc(N)nc4)nc3n2CC2CC2)CCN1 [Example 91, 5-{9-(Cyclopropylmethyl)-8-[(3S)-3-methylpiperazin-1-yl]-6-morpholin-4-yl-9H-purin-2-yl}pyrimidin-2-amine]

SMILES | IC50 (PI3Kα) [nM] | IC50 [1] [nM] | GI50 [2] [nM] | GI50 [3] [nM] | GI50 [4] [nM]
CC(C)Cn1c(N2CCN(C(=O)N(C)C)CC2)nc2c(N3CCOCC3)nc(-c3cnc(N)nc3)nc21 [Example 45, 4-[2-(2-Aminopyrimidin-5-yl)-9-isobutyl-6-morpholin-4-yl-9H-purin-8-yl]-N,N-dimethylpiperazine-1-carboxamide] | 20 to 50 | 30 to 100 | ≤ 5000 | ≤ 5000 | ≤ 5000

Reference: US8309546B2, “Morpholinopurine derivatives” (Daiichi Sankyo Company, Limited, priority 2008, dated 2012)
